Values quoted from earlier work, collected in PubChem BioAssay AID1259409 (Chemical Carcinogenesis Research Information System (CCRIS), 2018).

System: rodent chemically induced tumor inhibition, incidence and multiplicity
Experiment: CCRIS tumor inhibitor studies

c1cc2ccc3cccc4ccc(c1)c2c34
tumour outcome (control, treated, inhibition, significance) (Carcinogen: BENZO[A]PYRENE, 50-32-8, Dose [Inhibitor]: 4 UG IN 0.1 ML ACETONE 3/WK ADMINISTERED SIMULTANEOUSLY WITH CARCINOGEN FOR DURATION OF STUDY (STUDY DURATION: 368 D), Route [Inhibitor]: DERMAL, Species: MOUSE, Strain/Sex: ICR/FEMALE, Target Tissue: Type of Lesion: SKIN: PAPILLOMA, Dose [Carcinogen]: 5 UG IN 0.1 ML ACETONE 3/WK FOR DURATION OF STUDY, Promoter: NONE USED): 14/50 (28%), 12/50 (24%), 14%, not calculated | tumour outcome (control, treated, inhibition, significance) (Carcinogen: BENZO[A]PYRENE, 50-32-8, Dose [Inhibitor]: 4 UG IN 0.1 ML ACETONE 3/WK ADMINISTERED SIMULTANEOUSLY WITH CARCINOGEN FOR DURATION OF STUDY (STUDY DURATION: 368 D), Route [Inhibitor]: DERMAL, Species: MOUSE, Strain/Sex: ICR/FEMALE, Target Tissue: Type of Lesion: SKIN: SQUAMOUS CARCINOMA, Dose [Carcinogen]: 5 UG IN 0.1 ML ACETONE 3/WK FOR DURATION OF STUDY, Promoter: NONE USED): 10/50 (20%), 6/50 (12%), 40%, not calculated | tumour outcome (control, treated, inhibition, significance) (Carcinogen: BENZO[A]PYRENE, 50-32-8, Dose [Inhibitor]: 12 UG IN 0.1 ML ACETONE 3/WK ADMINISTERED SIMULTANEOUSLY WITH CARCINOGEN FOR DURATION OF STUDY (STUDY DURATION: 368 D), Route [Inhibitor]: DERMAL, Species: MOUSE, Strain/Sex: ICR/FEMALE, Target Tissue: Type of Lesion: SKIN: PAPILLOMA, Dose [Carcinogen]: 5 UG IN 0.1 ML ACETONE 3/WK FOR DURATION OF STUDY, Promoter: NONE USED): 14/50 (28%), 26/50 (52%), -86%, not calculated | tumour outcome (control, treated, inhibition, significance) (Carcinogen: BENZO[A]PYRENE, 50-32-8, Dose [Inhibitor]: 12 UG IN 0.1 ML ACETONE 3/WK ADMINISTERED SIMULTANEOUSLY WITH CARCINOGEN FOR DURATION OF STUDY (STUDY DURATION: 368 D), Route [Inhibitor]: DERMAL, Species: MOUSE, Strain/Sex: ICR/FEMALE, Target Tissue: Type of Lesion: SKIN: SQUAMOUS CARCINOMA, Dose [Carcinogen]: 5 UG IN 0.1 ML ACETONE 3/WK FOR DURATION OF STUDY, Promoter: NONE USED): 10/50 (20%), 20/50 (40%), -100%, not calculated | tumour outcome (control, treated, inhibition, significance) (Carcinogen: BENZO[A]PYRENE, 50-32-8, Dose [Inhibitor]: 40 UG IN 0.1 ML ACETONE 3/WK ADMINISTERED SIMULTANEOUSLY WITH CARCINOGEN FOR DURATION OF STUDY (STUDY DURATION: 440 D), Route [Inhibitor]: DERMAL, Species: MOUSE, Strain/Sex: ICR/FEMALE, Target Tissue: Type of Lesion: SKIN: PAPILLOMA, Dose [Carcinogen]: 5 UG IN 0.1 ML ACETONE 3/WK FOR DURATION OF STUDY, Promoter: NONE USED): 16/50 (32%), 35/50 (70%), -119%, not calculated | tumour outcome (control, treated, inhibition, significance) (Carcinogen: BENZO[A]PYRENE, 50-32-8, Dose [Inhibitor]: 40 UG IN 0.1 ML ACETONE 3/WK ADMINISTERED SIMULTANEOUSLY WITH CARCINOGEN FOR DURATION OF STUDY (STUDY DURATION: 440 D), Route [Inhibitor]: DERMAL, Species: MOUSE, Strain/Sex: ICR/FEMALE, Target Tissue: Type of Lesion: SKIN: SQUAMOUS CARCINOMA, Dose [Carcinogen]: 5 UG IN 0.1 ML ACETONE 3/WK FOR DURATION OF STUDY, Promoter: NONE USED): 12/50 (24%), 26/50 (52%), -117%, not calculated

COc1cc([C@@H]2Oc3cc([C@H]4Oc5cc(O)cc(O)c5C(=O)[C@@H]4O)ccc3O[C@H]2CO)ccc1O
tumour outcome (control, treated, inhibition, significance) (Carcinogen: 1,2-DIMETHYLHYDRAZINE, 540-73-8, Dose [Inhibitor]: 0, 0.1% IN DIET FOR 32 WK BEGINNING AT 24 D OF AGE (STUDY DURATION: 32 WK), Route [Inhibitor]: ORAL, Species: RAT, Strain/Sex: SPRAGUE-DAWLEY/MALE, Target Tissue: Type of Lesion: COLON: ADENOCARCINOMA, Dose [Carcinogen]: 20 MG/KG 1/WK FOR 15 WK BEGINNING ON D 37, Promoter: NONE USED): 19/22 (86%), 11/16 (69%), 20%, not calculated | tumour outcome (control, treated, inhibition, significance) (Carcinogen: 1,2-DIMETHYLHYDRAZINE, 540-73-8, Dose [Inhibitor]: 0, 0.1% IN DIET FOR 32 WK BEGINNING AT 24 D OF AGE (STUDY DURATION: 32 WK), Route [Inhibitor]: ORAL, Species: RAT, Strain/Sex: SPRAGUE-DAWLEY/MALE, Target Tissue: Type of Lesion: SMALL INTESTINE: ADENOCARCINOMA, Dose [Carcinogen]: 20 MG/KG 1/WK FOR 15 WK BEGINNING ON D 37, Promoter: NONE USED): 18/22 (82%), 9/16 (56%), 32%, not calculated | tumour outcome (control, treated, inhibition, significance) (Carcinogen: N-BUTYL-N-(4-HYDROXYBUTYL)NITROSAMINE, 3817-11-6, Dose [Inhibitor]: 0, 1000 PPM IN DIET FOR 8 WK (STUDY DURATION: 32 WK), Route [Inhibitor]: ORAL, Species: MOUSE, Strain/Sex: ICR/MALE, Target Tissue: Type of Lesion: URINARY BLADDER: PAPILLOMA, Dose [Carcinogen]: 500 PPM IN DRINKING WATER FOR 6 WK BEGINNING 1 WK AFTER FIRST INHIBITOR DOSE, Promoter: NONE USED): 2/44 (5%), 1/34 (3%), 40%, not significant | tumour outcome (control, treated, inhibition, significance) (Carcinogen: N-BUTYL-N-(4-HYDROXYBUTYL)NITROSAMINE, 3817-11-6, Dose [Inhibitor]: 0, 1000 PPM IN DIET FOR 8 WK (STUDY DURATION: 32 WK), Route [Inhibitor]: ORAL, Species: MOUSE, Strain/Sex: ICR/MALE, Target Tissue: Type of Lesion: URINARY BLADDER: TRANSITIONAL CELL CARCINOMA, Dose [Carcinogen]: 500 PPM IN DRINKING WATER FOR 6 WK BEGINNING 1 WK AFTER FIRST INHIBITOR DOSE, Promoter: NONE USED): 17/44 (39%), 4/34 (12%), 69%, p< 0.01 | outcome (Carcinogen: N-BUTYL-N-(4-HYDROXYBUTYL)NITROSAMINE, 3817-11-6, Dose [Inhibitor]: 0, 1000 PPM IN DIET FOR 24 WK BEGINNING 1 WK POST FINAL CARCINOGEN DOSE (STUDY DURATION: 32 WK), Route [Inhibitor]: ORAL, Species: MOUSE, Strain/Sex: ICR/MALE, Target Tissue: Type of Lesion: URINARY BLADDER: PAPILLOMA, Dose [Carcinogen]: 500 PPM IN DRINKING WATER FOR 6 WK BEGINNING 1 WK AFTER FIRST INHIBITOR DOSE, Promoter: NONE USED): 2/44 (5), 5/30 (17%), -240%, not significant | tumour outcome (control, treated, inhibition, significance) (Carcinogen: N-BUTYL-N-(4-HYDROXYBUTYL)NITROSAMINE, 3817-11-6, Dose [Inhibitor]: 0, 1000 PPM IN DIET FOR 24 WK BEGINNING 1 WK POST FINAL CARCINOGEN DOSE (STUDY DURATION: 32 WK), Route [Inhibitor]: ORAL, Species: MOUSE, Strain/Sex: ICR/MALE, Target Tissue: Type of Lesion: URINARY BLADDER: TRANSITIONAL CELL CARCINOMA, Dose [Carcinogen]: 500 PPM IN DRINKING WATER FOR 6 WK BEGINNING 1 WK AFTER FIRST INHIBITOR DOSE, Promoter: NONE USED): 17/44 (39%), 5/30 (17%), 56%, p< 0.05 | outcome (Carcinogen: N-Butyl-N-(4-hydroxybutyl)nitrosamine, 3817-11-6, Dose [Inhibitor]: 200 mg/kg bw 1 wk before carcinogen, dose duration 51 wk, study duration 56 wk, Route [Inhibitor]: Oral (gavage) 5 d/wk, Species: Mouse, Strain/Sex: ICR/Male, Target Tissue: Type of Lesion: Urinary Bladder: carcinoma, Dose [Carcinogen]: 0, 0.5% in drinking water for 6 wk, Promoter: None): 52%, 7.7%, p=0.001

COc1cc2c(c(OC)c1OC)-c1c(cc3c(c1OC)OCO3)C[C@H](C)[C@@](C)(O)C2
tumour outcome (control, treated, inhibition, significance) (Carcinogen: 7,12-DIMETHYLBENZ[A]ANTHRACENE, 57-97-6, Dose [Inhibitor]: 0, 5 UMOL IN 100 µL ACETONE 30 MIN PRIOR EACH PROMOTER DOSE 2/WK FOR 18 WK BEGINNING 7 D POST CARCINOGEN DOSE (STUDY DUR, Route [Inhibitor]: DERMAL, Species: MOUSE, Strain/Sex: ICR/FEMALE, Target Tissue: Type of Lesion: SKIN: PAPILLOMA, Dose [Carcinogen]: 50 UG IN 100 µL ACETONE ONCE, Promoter: 12-O-TETRADECANOYLPHORBOL-13-ACETATE, 16561-29-8): 100%, 50%, 50%, not calculated

c1cnc2c(c1)ccc1cccnc12
tumour outcome (control, treated, inhibition, significance) (Dose [Inhibitor]: 0, 15 MG/KG BW EVERY OTHER DAY BEGINNING 1 WK AFTER CARCINOGEN DOSING THROUGH WK 52 WK (STUDY DURATION: 52 WK), Route [Inhibitor]: INTRAPERITONEAL, Species: RAT, Strain/Sex: WISTAR/MALE, Target Tissue: Type of Lesion: STOMACH: ADENOCARCINOMA, Dose [Carcinogen]: 25 UG/ML IN DRINKING WATER FOR 25 WK, Promoter: SODIUM CHLORIDE (7647-14-5)): 19/20 (95%), 9/20 (45%), 53%, p< 0.001 | tumour outcome (control, treated, inhibition, significance) (Dose [Inhibitor]: 0, 30 MG/KG BW EVERY OTHER DAY BEGINNING 1 WK AFTER CARCINOGEN DOSING THROUGH WK 52 WK (STUDY DURATION: 52 WK), Route [Inhibitor]: INTRAPERITONEAL, Species: RAT, Strain/Sex: WISTAR/MALE, Target Tissue: Type of Lesion: STOMACH: ADENOCARCINOMA, Dose [Carcinogen]: 25 UG/ML IN DRINKING WATER FOR 25 WK, Promoter: SODIUM CHLORIDE (7647-14-5)): 19/20 (95%), 7/20 (35%), 63%, p< 0.01

S=C=Nc1cccc2ccccc12
tumour outcome (control, treated, inhibition, significance) (Carcinogen: 2-AMINO-3-METHYLIMIDAZO[4,5-B]PYRIDINE (PHIP) [105650-23-5), Dose [Inhibitor]: DIET, Route [Inhibitor]: 400 PPM ADMINISTERED FROM 42 TO 66 D OF AGE, Species: RAT, Strain/Sex: SPRAGUE-DAWLEY/FEMALE, Target Tissue: Type of Lesion: MAMMARY, CARCINOMA, Dose [Carcinogen]: 85 MG/KG BW 8 TIMES OVER 11 D, STARTING 1 WK AFTER ANIT FEEDING (STUDY DURATION: 24 WKS)): 56.3%, 6.7%, 88.1%, p<0.001

NC(N)=S
outcome (Carcinogen: N-BIS-(2-HYDROXYPROPYL)NITROSAMINE [53609-64-6], Dose [Inhibitor]: 0, 0.2% IN DIET 4 WK BEGINNING 1 WK POST CARCINOGEN DOSE (STUDY DURATION: 5 WK), Route [Inhibitor]: ORAL, Species: RAT, Strain/Sex: F344/DUCRJ/MALE, Target Tissue: Type of Lesion: THYROID GLAND: ADENOMATOUS GROWTH PATTERN, Dose [Carcinogen]: 2800 MG/KG BW ONCE (STUDY DURATION: 5 WK), Promoter: NONE): 0%, 30%, -100%, not significant
